Assays:
normal cells = system: normal cells
Procedure: (§1) This example is directed to a reagent kit to determine the presence of cancer cells in cervical specimens (i.e., Pap (Papanicolaou test) smears).
(§2) TST solution (soluble TST) was prepared by adding 5 mg of TST to 1 ml of dd H2O. Inadvertent “grounding” of the TST was avoided. The solution was mixed gently and thoroughly by pipetting up and down. Formation of air bubbles and excessive agitation were avoided. The solution was centrifuged for 15 seconds at 1,000 rpm to settle excess TST. Soluble TST was added to a sample slide (picking up and depositing undissolved TST was avoided). The slide was incubated at room temperature for 10 minutes, followed by rinsing by either dipping the slide five times in a beaker of distilled water, or using the dual pipette method to remove excess TST. Dual pipette method: Using two pipettes, water was slowly added to the slide at one corner while the solution was simultaneously drawn up into the other pipette from a distal corner of the sample. Without intending to be bound by theory, the idea was to create somewhat of a flow across the sample, to gently wash it. The sample was quickly and gently blotted once or twice with a cloth wipe.
The enhancement solution was then prepared. One drop each of the 2-part enhancer was added to a microfuge tube. […]

CNOX [1] = conditions: soybean seed plasma protein; elevated concentrations far above 1 PPM
Procedure: (§3) NADH oxidase (NOX) activity was determined (as the disappearance of it measured spectrophotometrically at 340 nm) in a reaction mixture (25 mM Tris-MES buffer at pH 7.2, KCN 1 mM) to inhibit low levels of mitochondrial oxidase activity, and 150 micromoles […] at 37° C. with stirring. Activity was measured with pairs of Hitachi U3210 Spectrophotometers. Assays were initiated by the addition of NOX and tetrasilver tetroxide (Ag4O4) for one minute and were repeated on the same sample every 1.5 minutes over a 45-minute period. A mM absorption coefficient of 6.2 was used to determine specific activity.
(§4) Protein disulfide-thiol interchange activity associated with tNOX was measured using the dipyridyldithio substrate dithiodipyridine (DTDP). The assay was performed in 50 mM Tris-MES buffer (pH 7.0) and was initiated by the addition of 0.5 micromoles DTDP in 5 microliters DMSO as a control. The reaction was monitored by tracking an increase in absorption at 340 nm using DTDP, specific activity being calculated using a mM absorption coefficient of 6.2. The spectrophotometric assays were performed simultaneously with the two spectrophotometers and DMSO controls.
(§5) The procedure was repeated with plasma protein derived from soybean seeds containing CNOX growth regulator.

CNOX [2] = molecular target: CNOX (Homo sapiens, UniProt Q8TC92); conditions: MCF-10A human mammary epithelia; elevated concentrations far above 1 PPM
Chain of CNOX (Homo sapiens, UniProt Q8TC92) (Q8TC92 whole entry): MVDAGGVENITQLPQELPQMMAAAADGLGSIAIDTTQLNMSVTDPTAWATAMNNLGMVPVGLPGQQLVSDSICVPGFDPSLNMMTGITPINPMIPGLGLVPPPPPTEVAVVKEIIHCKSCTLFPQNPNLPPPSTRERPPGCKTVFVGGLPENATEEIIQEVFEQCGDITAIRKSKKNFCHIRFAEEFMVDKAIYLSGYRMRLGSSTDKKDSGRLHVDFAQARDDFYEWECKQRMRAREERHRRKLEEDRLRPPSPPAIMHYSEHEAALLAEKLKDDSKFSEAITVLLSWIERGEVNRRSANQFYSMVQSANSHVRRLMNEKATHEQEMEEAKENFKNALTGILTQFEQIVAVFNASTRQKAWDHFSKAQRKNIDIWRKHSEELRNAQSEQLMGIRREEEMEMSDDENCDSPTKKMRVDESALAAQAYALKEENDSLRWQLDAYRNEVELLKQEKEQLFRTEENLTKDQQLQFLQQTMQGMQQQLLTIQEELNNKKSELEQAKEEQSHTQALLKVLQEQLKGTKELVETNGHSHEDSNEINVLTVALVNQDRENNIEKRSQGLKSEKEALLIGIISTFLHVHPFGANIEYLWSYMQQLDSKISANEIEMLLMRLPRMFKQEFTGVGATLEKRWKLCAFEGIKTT
Procedure: as §3, §4, §5

[3] = single intravenous injection at about 40 ppm of human blood; no reported loss of liver function; cited from earlier work
[4] = system: gynecological yeast infection; conditions: 10 ppm silver tetroxide and 40 ppm sodium persulfate; cited from earlier work
HeLa cells = test: Binding/staining of HeLa cervical carcinoma cells; format: cell-based, human
Procedure: as §1
Next, HeLa cells were mixed with epithelial (cheek) cells to create a simulated Pap smear.
as §2
The enhancement solution was then prepared. One drop each of the 2-part enhancer was added to a microfuge tube. The mixture was vortexed for 40 seconds, and then immediately added it to the sample (an optional very brief centrifuge step at low speed in order to settle the liquid at the bottom of the tube was performed prior to addition to the sample). The sample was incubated at room temperature for 20-30 minutes. Optionally, the progress of the reaction under was observed using a light microscope. The slide was rinsed by either dipping the slide 5 times into a beaker of distilled water, or by the dual pipette method described above. The sample was quickly and gently blotted once or twice with a cloth wipe, and the sample was allowed to dry. The results were observed either under a light microscope or with the naked eye.

[5] = system: Herpes virus infected cells; conditions: Pap smear samples, FIG. 4
Procedure: as §2
The enhancement solution was then prepared. One drop each of the 2-part enhancer was added to a microfuge tube. The mixture was vortexed for 40 seconds, and then immediately added it to the sample (an optional very brief centrifuge step at low speed in order to settle the liquid at the bottom of the tube was performed prior to addition to the sample). […]

toenail fungus = conditions: single case, 25% suspension of the composition, topical; cited from earlier work
tNOX [6] = molecular target: tNOX (Homo sapiens, UniProt Q16206); conditions: BT-20 mammary cancer cell line
Chain of tNOX (Homo sapiens, UniProt Q16206) (Q16206 whole entry): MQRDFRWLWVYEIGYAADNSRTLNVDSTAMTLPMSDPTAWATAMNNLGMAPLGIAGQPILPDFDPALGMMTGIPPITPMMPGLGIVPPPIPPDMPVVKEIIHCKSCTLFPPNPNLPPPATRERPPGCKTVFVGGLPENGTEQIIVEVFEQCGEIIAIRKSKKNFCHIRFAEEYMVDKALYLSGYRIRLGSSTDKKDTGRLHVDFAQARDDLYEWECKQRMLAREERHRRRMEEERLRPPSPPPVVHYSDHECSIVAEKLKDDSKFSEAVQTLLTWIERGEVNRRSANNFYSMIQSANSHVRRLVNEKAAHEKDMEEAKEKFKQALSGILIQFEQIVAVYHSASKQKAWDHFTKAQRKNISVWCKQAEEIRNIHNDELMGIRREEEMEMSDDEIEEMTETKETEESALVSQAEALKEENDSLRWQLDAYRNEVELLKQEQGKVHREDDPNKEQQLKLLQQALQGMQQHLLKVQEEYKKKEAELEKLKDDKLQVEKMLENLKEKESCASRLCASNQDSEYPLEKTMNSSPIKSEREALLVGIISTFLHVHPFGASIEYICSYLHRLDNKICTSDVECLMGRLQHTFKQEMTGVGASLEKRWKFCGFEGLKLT
Procedure: as §3, §4

tNOX [7] = conditions: HeLa cells; concentration of one part per million (PPM)
Procedure: as §3, §4

athlete's foot = conditions: single case, solution of 100 ppm of the composition, topical; cited from earlier work
wild type mouse liver = conditions: after computer photography enhancement, 40x
Procedure: (§6) Frozen liver slices were obtained, and the two step process described below for non-aqueous testing was performed. The results were viewed with a microscope and computer enhanced. Frozen liver slices from a wild type mouse (non-cancerous) were compared with frozen liver slices from a transgenic mouse expressing tNOX on its liver cells.
(§7) TST solution was prepared by adding 5 mg of TST to 1 ml of dd H2O. Inadvertent “grounding” of the TST was avoided. The solution was mixed gently and thoroughly by pipetting up and down. Air bubbles and excessive agitation were avoided. The solution was centrifuged for 15 seconds at 1,000 rpm to settle excess TST.
(§8) Soluble TST was added to a sample section, while avoiding undissolved TST. The sample was incubated at room temperature for 10 minutes. Excess TST was removed by dipping the section several times in a beaker of distilled water. The sample was quickly and gently blotted once or twice with a cloth wipe.
(§9) The enhancement solution was prepared by placing one drop each of the two-part enhancer into a microfuge tube. The mixture was vortexed for 40 seconds, and immediately added to the sample. The solution was optionally centrifuged briefly at low speed in order to settle the liquid at the bottom of the tube prior to addition to the sample. The sample was incubated at room temperature for 20-30 minutes.

[8] = system: liver cells expressing tNOX; conditions: after computer photography enhancement, 40x
Procedure: as §6, §7, §8, §9

tumor cells (HeLa) = conditions: FIG. 7
Text: (§10) A non-spectrophotometric characterization technique, i.e., scanning electron microscopy (SEM) was used with the procedure set forth in Example VIII.

[9] = system: non-tumor cells (MCF-10A); conditions: FIGS. 10A-10B
Text: as §10

| Compound | binding to normal cells (normal cells) | nuclear staining (normal cells; Pap smear samples, FIG. 4) | effect on CNOX (CNOX [1]) | effect on CNOX (CNOX [2]) | liver adverse effect [3] | outcome of infection [4] | binding to HeLa cultured cervical cell lines (HeLa cells) | nuclear staining (HeLa cells; Pap smear samples, FIG. 4) | distinguishing HeLa cells from epithelial (cheek) cells (HeLa cells; simulated Pap smear, HeLa mixed with cheek cells) | staining of infected cells [5] | outcome of infection (toenail fungus) | tNOX activity inhibition (tNOX [6]) | tNOX activity inhibition (tNOX [7]) | outcome of infection (athlete's foot) | staining of liver slices (wild type mouse liver) | staining of liver slices [8] | binding by SEM (tumor cells (HeLa)) | binding by SEM [9] | staining of HeLa cells (HeLa cells; Fe3O4, FIGS. 9A-9C) |
| --- | --- | --- | --- | --- | --- | --- | --- | --- | --- | --- | --- | --- | --- | --- | --- | --- | --- | --- | --- |
| [Ag+].[Ag+].[Ag+].[Ag+].[O-2].[O-2].[O-2].[O-2] [tetrasilver tetroxide] | without binding | no nuclear staining | not affected at all | not affected at all | hepatomegaly | curing | bound covalently | black staining of nuclei | selective binding with and darkening of the cytoplasmic membrane of the HeLa cells | brown staining | cure | the same as in Example VIfI | inhibited completely | cure | did not | black nuclei and black borders | actual binding | non-binding |  |
| [O]=[Fe].[O]=[Fe][O][Fe]=[O] [Fe3O4, triiron tetroxide] |  |  |  |  |  |  |  |  |  |  |  |  |  |  |  |  |  |  | selectively stained |

Source: patent US20040265877A1, “Methods for detecting presence of cellular constituents” (Marantech Holding, LLC, priority 2003, published 2004)
